Experiments:
topoisomerase II α [1] = biological target: T1, topoisomerase II α (Homo sapiens, UniProt P11388); assay: Band depletion assay (extractable topoisomerase II α, western blot); type: cell-based; design: OC—NYH cells were exposed to increasing concentrations of NSC 35866 for one hour and total proteins were extracted at 0.3 M NaCl; endogenous in cells; host or cells: human small cell lung cancer OC-NYH cells; settings: 200 μM, OC—NYH cells, one hour
Description: Band depletion assay was performed essentially as described in Sehested et al., 1998. The amount of extractable topoisomerase II α was detected by the ECL detection method (Amersham, Buckinghamshire, United Kingdom). OC—NYH cells were exposed to increasing concentrations of NSC 35866 for one hour and total proteins were extracted at 0.3 M NaCl. For detection of topoisomerase II α, a polyclonal primary antibody (Bio Trend, Cologne, Germany) was used. Horseradish peroxidase linked anti-rabbit antibody (Amersham, Buckinghamshire, United Kingdom) was used as secondary antibody.
FIG. 10 describes the results of studies of the ability of NSC 35866 to trap human topoisomerase II α as a non-extractable complex on DNA in a dose dependent manner. The ability of NSC 35866 to stabilise topoisomerase II α as a non-extractable complex on DNA in human SCLC OC—NYH cells was assessed using the band depletion assay as described herein. The amounts of topoisomerase II α was visualised by western blotting using a topoisomerase II α specific primary antibody: Lane 1, no drug; Lane 2, 200 μM ICRF-187; Lane 3, 200 μM NSC 35866; Lane 4, 500 μM NSC 35866; Lane 5, 1000 μM NSC 35866. Band depletion of the topoisomerase II α isoform caused by NSC 35866 was detected in two independent experiments.

topoisomerase II α [2] = biological target: T1, topoisomerase II α; assay: Topoisomerase II ATPase assay (coupled, NADH oxidation); type: biochemical; design: made in house; host or cells: yeast (over-expressing yeast cells)
Description: The reaction was monitored spectrophotometrically at 340 nm using a Bio-Tek EL808 Ultra Micro plate Reader connected to a computer with KC4 Software installed (Bio-Tek Instruments, U.S.). The change in absorbance was related to ADP production using A340^1M=6220 cm^−1. […] The rate of ATP hydrolysis, V, was determined from the linear part of the curve.
The steady-state rate of ATP hydrolysis was determined using a coupled ATPase assay as described herein. […] Error bars represent SEM of two independent experiments each performed in duplicate.
The steady-state rate of ATP hydrolysis was determined as described in for FIG. 3 and as described herein. In this analysis, the rate of ATP hydrolysis in the absence of drug was set to one in all experiments. Error bars represent SEM of 2 or 3 independent experiments each preformed in duplicate.

topoisomerase II α [3] = biological target: T1, topoisomerase II α; assay: Topoisomerase II retention on DNA/streptavidin beads (salt-stable complex); type: biochemical; design: made in house; host or cells: yeast (over-expressing yeast cells)
Description: An assay capable of measuring non-covalent complexes of topoisomerase II on closed circular DNA was performed as described in Morris et al., 2000, with modifications. When performing six reactions, 60 μL M280 streptavidin coated bead (Dynal A/S, Oslo, Norway) slurry corresponding to 600 μg beads was transferred to a 1.5 mL tube that was then placed in a Dynal MPC-E (magnetic particle concentrator) rack (Dynal A/S, Oslo, Norway) for 1 to 2 minutes until the beads had settled on the tube wall. The beads were then washed twice in the DNA binding solution supplied with the kilobase binding kit (Dynal A/S, Oslo, Norway) by repeating this step. Finally, the beads were re-suspended in 250 μL DNA binding solution. A preparation of biotin labelled plasmid DNA containing a 5-kb super coiled circular DNA molecule carrying 8 successive PNA (Peptide Nucleic Acid) linked biotin labels at one known position (pGeneGrip biotin blank vector, Gene Therapy Systems Inc., San Diego, Calif., USA) was made by mixing 220 μL distilled water and 30 μL biotinylated DNA. After mixing the beads and the DNA preparation, the sample was left overnight at room temperature under gentle agitation to assure optimal formation of the DynaBeads DNA complex. Next, the complex was washed twice in 480 μL wash buffer (10 mM TRIS-HCL, pH 7.5, 2 M NaCl, 1 mM EDTA), once in distilled water, and once in topoisomerase reaction buffer (10 mM TRIS-HCl, pH 7.9, 50 mM NaCl, 50 mM KCl, 5 mM MgCl2, 1 mM EDTA, […] BSA). Then, the beads were re-suspended in 600 μL topoisomerase II buffer and divided into 6 tubes. 100 μL reactions containing plasmid DNA coated DynaBeads, topoisomerase II buffer, 2 μg purified human topoisomerase […] and drugs were incubated for 30 minutes at 37° C. When included, ATP was present at 1 mM. […]
FIG. 7 describes the results of studies of the ability of NSC 35866 to stabilise a salt-stable complex of human topoisomerase II α on covalently closed circular DNA. Retention of salt-stable (to 2 M KCl) complexes of human topoisomerase II α on circular DNA attached to magnetic beads via biotin-streptavidin linkage was determined by eluting retained protein by adding running buffer containing 4% SDS followed by heating to 100° C. for 10 minutes. The amount of human topoisomerase II α protein retained was then determined by running the samples on 7% SDS-PAGE gels followed by straining with GelCode Blue Strain Reagent (Pierce, Rockford, Ill., USA): Lane 1, no drug; Lane 2, 200 μM ICRF-187; Lane 3, 30 μM NSC 35866; Lane 4, 100 μM NSC 35866; Lane 5, 300 μM NSC 35866; Lane 6, 1000 μM NSC 35866; Lane K, 2 μg human topoisomerase II α. […]

[4] = biological target: T2, bisdioxopiperazine resistant Y165S mutant human topoisomerase II α (Homo sapiens, UniProt P11388, Y165S); type: biochemical; settings: FIG. 2-B
T2 construct: made in house; host or cells: yeast (over-expressing yeast cells)
T2 sequence (P11388 whole entry Y165S): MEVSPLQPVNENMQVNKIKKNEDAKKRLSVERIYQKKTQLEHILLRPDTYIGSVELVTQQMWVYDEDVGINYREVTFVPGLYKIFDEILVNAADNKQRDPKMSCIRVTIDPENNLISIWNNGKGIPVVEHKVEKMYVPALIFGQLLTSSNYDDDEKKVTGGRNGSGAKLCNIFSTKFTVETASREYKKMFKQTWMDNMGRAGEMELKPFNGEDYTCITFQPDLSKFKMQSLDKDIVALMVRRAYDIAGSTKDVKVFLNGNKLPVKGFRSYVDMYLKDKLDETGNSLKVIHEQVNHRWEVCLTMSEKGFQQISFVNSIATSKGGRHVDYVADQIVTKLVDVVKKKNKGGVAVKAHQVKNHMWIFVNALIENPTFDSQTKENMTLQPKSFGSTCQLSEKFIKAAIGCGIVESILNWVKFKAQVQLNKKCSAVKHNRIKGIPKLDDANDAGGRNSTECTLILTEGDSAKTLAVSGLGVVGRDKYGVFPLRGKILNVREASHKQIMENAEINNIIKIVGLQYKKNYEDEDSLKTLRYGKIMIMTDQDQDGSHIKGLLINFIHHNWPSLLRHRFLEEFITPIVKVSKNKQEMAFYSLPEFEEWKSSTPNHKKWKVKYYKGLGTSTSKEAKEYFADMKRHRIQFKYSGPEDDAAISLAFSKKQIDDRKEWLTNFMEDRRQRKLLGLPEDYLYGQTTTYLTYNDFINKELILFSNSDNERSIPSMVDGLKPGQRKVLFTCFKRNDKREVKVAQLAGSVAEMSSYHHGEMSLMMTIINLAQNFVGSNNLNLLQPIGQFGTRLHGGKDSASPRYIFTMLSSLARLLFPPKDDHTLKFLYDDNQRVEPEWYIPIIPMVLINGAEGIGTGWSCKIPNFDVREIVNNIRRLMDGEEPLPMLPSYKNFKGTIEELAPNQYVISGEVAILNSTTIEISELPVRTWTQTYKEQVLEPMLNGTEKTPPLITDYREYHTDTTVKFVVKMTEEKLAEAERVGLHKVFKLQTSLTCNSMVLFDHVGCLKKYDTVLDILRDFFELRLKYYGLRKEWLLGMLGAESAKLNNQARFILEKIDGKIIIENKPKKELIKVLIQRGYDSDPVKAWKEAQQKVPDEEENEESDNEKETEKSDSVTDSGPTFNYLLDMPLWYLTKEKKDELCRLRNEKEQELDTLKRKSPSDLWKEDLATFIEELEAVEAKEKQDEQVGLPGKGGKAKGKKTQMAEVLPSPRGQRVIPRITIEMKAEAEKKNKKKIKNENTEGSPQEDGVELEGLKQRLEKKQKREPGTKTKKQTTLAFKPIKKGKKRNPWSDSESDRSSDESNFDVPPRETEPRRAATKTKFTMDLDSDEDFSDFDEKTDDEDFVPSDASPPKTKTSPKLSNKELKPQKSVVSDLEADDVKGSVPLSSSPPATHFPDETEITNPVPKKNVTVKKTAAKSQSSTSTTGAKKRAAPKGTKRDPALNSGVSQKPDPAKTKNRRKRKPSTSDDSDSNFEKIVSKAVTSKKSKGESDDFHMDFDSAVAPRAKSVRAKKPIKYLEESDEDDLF
Description: Topoisomerase II catalytic activity (DNA strand passage activity) was measured by using a filter-based kDNA decatenation assay as described in Jensen et al., 2002. Briefly, 200 ng ^3H labelled kDNA isolated from C. fasciculata was incubated with increasing concentrations of drug in 20 μL reaction buffer containing 10 mM TRIS-HCl pH 7.7, 50 mM NaCl, 50 mM KCl, 5 mM MgCl2, 1 mM EDTA, 15 μg/mL BSA and 1 mM ATP using two units of purified wild-type or Y165S mutant topoisomerase II α for 20 minutes at 37° C. (where one unit of activity is defined as the amount of enzyme required for complete decatenation in the absence of drug). After addition of 5× stop buffer (5% Sarkosyl, 0.0025% bromophenol blue, and 50% glycerol), unprocessed kDNA network and decatenated DNA mini-circles were separated by filtering, and the amount of unprocessed kDNA in each reaction was determined by scintillation counting.
Inhibition of human topoisomerase II α DNA strand passage activity was assessed by decatenation of tritium-labelled Crithidia fasiculata kDNA using a filter-based assay to separate unprocessed kDNA network from decatenated mini-circles.

T1 sequence (P11388 whole entry): as the sequence (P11388 whole entry Y165S) above, with S165Y counted along it

- effect on amount of extractable topoisomerase II α, in words (topoisomerase II α [1]): clearly reduced
- ATPase activity relative to that seen in the absence of drug (topoisomerase II α [2]; 100 μM, in the absence of DNA): 75%
- IC50 (topoisomerase II α [2]; in the presence of DNA (DNA-stimulated), read-out: IC50, inhibition of ATPase activity): 1 µM
- retention of topoisomerase II on DNA beads, in words (topoisomerase II α [3]; in the absence of ATP): strongly depended on ATP
Structure (SMILES): C[C@@H](CN1CC(=O)NC(=O)C1)N1CC(=O)NC(=O)C1 [ICRF-187, (+)-1,2-bis(3,5-dioxopiperazinyl-1-yl)propane, reference compound]
- retention of topoisomerase II on DNA beads after 2 M KCl wash, in words (topoisomerase II α [3]; 200 μM, with ATP): strongly induced the retention of topoisomerase II to the beads
- inhibition of catalytic activity of the Y165S protein, in words [4]: incapable of inhibiting the catalytic activity of the Y165S protein

From patent US20090209535A1, “6-ETHER/THIOETHER-PURINES AS TOPOISOMERASE II CATALYTIC INHIBITORS AND THEIR USE IN THERAPY” (TOPOTARGET A/S, priority 2005, published 2009)
